# Earlier results as cited in patent US11523999B2, “Compositions comprising a fatty aged oil mixture and a free fatty acid, and methods and uses thereof” (Pronova Biopharma Norge AS, priority 2009, dated 2022).
# “And” between values parts separate entries of the source, which are not always exact repeats. Identical values can stand only once.
# Settings: for HBL Value: Other surfactants, Table 7; for HLB Value: Span surfactants, Table 3
Compound,HBL Value,HLB Value
Propylene glycol monostearate,3.4,
CCCCCCCCCCCCCCCCCC(=O)OCC(O)CO (stereo not drawn) [Glyceryl monostearate],3.3 and 3.8,
CCCCCCCCCCCCOS(=O)(=O)[O-].[Na+] [Sodium lauryl sulphate],40,
sorbitan monopalmitate [Span ® 40],,6.7
CCCCCCCCCCCCCCCC[N+](C)(C)C.[Br-] [Cetrimonium bromide],23.3,
CCCCCCCCCCCC(=O)OCCOCCO [Diethylene glycol monolaurate],6.1,
sorbitan monostearate [Span ® 60],,4.7
sorbitan monooleate [Span ® 80],,4.3
CCCCCCCCCCCCCCCCCC(=O)OCCOC(=O)CCCCCCCCCCCCCCCCC [Ethylene glycol distearate],1.5,
